Data published in patent US20230218654A1, “COMPOSITIONS AND METHODS FOR TREATING HYPERGLYCEMIA IN TYPE-2 DIABETES” (The Board of Regents of the university of Oklahoma, priority 2020, published 2023).
Entries after “also recorded” stand apart in the source; their conditions may differ.

Columns and labels:
[1] = tested on: differentiated C2C12 myocytes; assay: Western blot of insulin signaling in differentiated C2C12 myocytes; format: cell-based; details: 500 nM, 1 h, then 100 nM insulin in time course
Description: Differentiated C2C12 myocytes were pre-treated with MLN4924 (500 nM) for 1 h followed by 100 nM insulin treatment in time course.
C2C12 myoblast cells were cultured in DMEM medium supplemented with 10% FBS. When cells grow to 60% confluency, differentiation into myocytes was induced by culturing cells in DMEM supplemented with 2% horse serum for 4-6 days. Cells were then serum starved overnight and treated with 500 nM MLN4924 or DMSO for 6 h and then stimulated with 100 nM insulin for 1 hour as indicated. Glucose uptake was measured with a Glucose uptake Glo^tm assay kit that was purchased from Promega (Madison, WI).
Skeletal muscle is a major organ that is responsible for the majority of the blood glucose clearance during postprandial state. Insulin resistance in muscle causes impaired insulin-stimulated glucose uptake that contributes to hyperglycemia in diabetes. To determine if CRL inhibition in muscle cells may contribute to the insulin sensitizing and glucose lowering effect in obese mice, differentiated C2C12 myocytes were treated with MLN4924 to inhibit CRLs (FIG. 8A). […] To further determine if MLN4924 treatment increases muscle glucose clearance, a glucose tolerance test (GTT) was performed, in which reduction of glucose excursion is mainly attributed to blood glucose clearance by muscle.

[2] = tested on: male C57BL/6J mice fed C or WD; assay: Prevention experiment: MLN4924 twice/week during 16 weeks of WD feeding; format: in vivo
Description: Mice fed WD became obese and insulin resistant. For both cohorts, body weight was measured weekly. Male C57BL/6J mice were fed C or WD for 16 weeks. Vehicle or MLN4924 (60 mg/kg) was administered via SQ injection twice/week for 16 weeks. Results are mean ±SEM. n=5-7. “*”, vs C+Veh; “#”, vs. WD+Veh, p<0.05.
Male C57BL/6J mice were purchased from the Jackson Laboratory (Bar Harbor, ME). Mice were fed a regular chow (C) diet or a Western diet (WD) that contains 42% fat calories and 0.2% cholesterol content (TD. 88137, Envigo Inc. Indianapolis, IN).
MLN4924 and TAS4464 were purchased from MedChemExpress (MCE, Monmouth Junction, NJ). For cell treatment, MLN4924 and TAS4464 were dissolved in DMSO. Cells were serum starved overnight and then treated with MLN4924, TAS4464 and/or insulin as indicated. For injection in mice, MLN4924 and TAS4464 were first dissolved in DMSO, which was further suspended in 10% (2-hydroxypropyl)-β-cyclodextrin (Sigma, St. Louis, MO). The final solution contains 1% DMSO. The subcutaneous injection volume is 200 µl/mouse.
Lipids were extracted in a mixture of chloroform: methanol (2:1; v: v), dried under nitrogen, and resuspended in isopropanol containing 1% triton X-100. Total cholesterol, free cholesterol and TG were measured with assay kits following the manufacturer’s instruction. Total cholesterol assay kit and TG assay kit were purchased from Pointe Scientific (Canton, MI).
Aspartate aminotransferase (AST) and alanine aminotransferase (ALT) assay kits were purchased from Pointe Scientific (Canton, MI). Free fatty acid assay kit was purchased from Biovision Inc. (Milpitas, CA). Insulin ELISA kit was purchased from Crystal Chem Inc. (Elk Grove Village, IL).
Next investigated was the glucose lowering effect of CRL inhibition in mice rendered obese and insulin resistant by 16-weeks of WD feeding. […] Next conducted was an intervention study in which MLN4924 treatment was initiated after mice were fed WD for 8 weeks that rendered mice obese and insulin resistant. […] In summary, robust evidence is provided herein that pharmacological CRL inhibition is an effective approach to lowering hyperglycemia.

[3] = tested on: male mice fed WD for 6 weeks; assay: Insulin tolerance test (ITT); format: in vivo; details: WD 6 weeks, 60 mg/kg SQ twice
Description: Male C7BL/6J mice were first fed WD for 6 weeks, and then treated with 60 mg/kg MLN6924 via subcutaneous (SQ) injection at 5 pm on day 1 and 9 am on day 2. Mice were fasted from 9 am to 3 pm on day 2 and insulin tolerance test was performed with 0.5 U/kg insulin i.p. injection (n=5). All results are expressed as mean ± SEM. “*”, p<0.05, vs. Vehicle group at the same time point. Unpaired Student’s t-test was used to calculate the p value.
(§1) Mice were treated with 2 doses of MLN4924 as described. After the second injection at 9 am, mice were fasted for 6 h from 9 am to 3 pm. Mice were injected intraperitoneally […] for PTT, and 0.5 U/kg insulin for ITT. Blood glucose was measured with a OneTouch Ultra glucose meter.

[4] = tested on: skeletal muscle cullin neddylation and AKT phosphorylation; assay: Western blot of gastrocnemius (skeletal) muscle after acute MLN4924; format: in vivo, mice; details: chow diet; 60 mg/kg SQ twice
Description: Male C57BL/6J mice on chow diet were treated with 60 mg/kg MLN6924 via subcutaneous (SQ) injection at 5 pm on day 1 and 9 am on day 2. Mice were fasted from 9 am to 3 pm on day 2 and sacrificed. Effect of MLN4924 on gastrocnemius muscle cullin neddylation and AKT phosphorylation was measured by Western blotting.
Human normal livers (less than 5% steatosis) and histologically confirmed NASH livers were obtained from either the University of Kansas Liver Center or the Liver Tissue Cell Distribution System (LTCDS) at the University of Minnesota. Human and mouse tissue samples were homogenized in 1XRIPA buffer containing 1% SDS and protease inhibitors. After incubation on ice for 1 hour, the samples were centrifugation and supernatant was transferred to a new tube. The protein lysate was mixed with equal volume of 2X laemmli buffer and incubated at 95° C. for 5 minutes and used for SDS-PAGE and immunoblotting. ImageJ software (NIH) was used to determine band intensity.
To further explore the hepatic insulin sensitizing effect of neddylation inhibition in vivo, we administered MLN4924 to chow-fed mice twice via subcutaneous (SQ) injection (5 pm on day 1 and 9 am on day 2) and studied the acute effect of MLN4924. The dose of 60 mg/kg is in line with published literature. […] In addition to liver, skeletal muscle is another organ that quantitatively contribute to plasma glucose homeostasis.

[5] = tested on: male C57BL/6J mice; assay: Glucose tolerance test (GTT); format: in vivo; details: 60 mg/kg SQ twice; for glucose tolerance in GTT: 6 h fast
Description: On the day of testing, mice were fasted for 6 h (from 9 am to 3 pm). Mice were then given 2 g/kg D-glucose via IP injection. Blood glucose was measured with an UltraTouch glucometer in time course over a 120-minute period.
as §1

[6] = WD 16 weeks, 60 mg/kg SQ twice/week

**Q.** With NS(=O)(=O)OC[C@@H]1C[C@@H](n2ccc3c(N[C@H]4CCc5ccccc54)ncnc32)C[C@@H]1O [MLN4924, ((1S,2S,4R)-4-(4-((1S)-2,3-dihydro-1H-inden-1-ylamino)-7H-pyrrolo[2,3-d]pyrimidin-7-yl)-2-hydroxycyclopentyl) methyl sulfamate] as the compound, how does the “IRS1 and IRS2 degradation upon insulin stimulation” value [1] read?
**A.** delayed IRS1 and IRS2 degradation

**Q.** What about the “insulin activation of AKT phosphorylation” value [1] of the same compound?
**A.** increased insulin activation of AKT phosphorylation

**Q.** What about the tolerability / hepatotoxicity ([2]; 16 weeks of MLN4924, 60 mg/kg SQ twice/week) of the same compound?
**A.** well tolerated and did not cause hepatotoxicity

**Q.** And the “transaminase (ALT) elevation” value ([2]; C-fed mice, after 16 weeks of MLN4924)?
**A.** did not cause transaminase (ALT) elevation

**Q.** What about the “blood glucose (6 h fast)” value [2, 6] of the same compound?
**A.** completely normalized blood glucose

**Q.** What about the “reduction of hepatic cholesterol” value [2, 6] of the same compound?
**A.** ~ 30%

**Q.** And the “reduction of hepatic triglycerides (TG)” value [2, 6]?
**A.** ~ 40%

**Q.** And the “serum ALT” value ([2]; WD-fed mice, 16 weeks of MLN4924)?
**A.** significantly reduced

**Q.** What about the “plasma glucose in response to insulin after 1 h” value ([3]; 0.5 U/kg insulin i.p., similar in vehicle group) of the same compound?
**A.** ~ 25 mg/dL

**Q.** And the basal glucose ([3]; 6 h fast)?
**A.** lower basal glucose

**Q.** And the “increase of AKT phosphorylation in skeletal muscle” value [4]?
**A.** did not

**Q.** What about the “increase of IRS protein abundance in skeletal muscle” value [4] of the same compound?
**A.** did not

**Q.** What about the “inhibition of cullin neddylation in skeletal muscle” value [4] of the same compound?
**A.** did not inhibit cullin neddylation

**Q.** What about the “peak blood glucose at 30 minutes post glucose challenge” value ([5]; vs vehicle) of the same compound?
**A.** significantly lower

**Q.** What about the “glucose tolerance in GTT” value ([5]; 3-week WD-fed mice) of the same compound?
**A.** significantly improved glucose tolerance

**Q.** And the “basal glucose levels after 6 h fasting” value ([5]; chow condition)?
**A.** did not significantly decrease basal glucose levels

**Q.** What about the “glucose tolerance in GTT” value ([5]; chow-fed mice, 60 mg/kg) of the same compound?
**A.** significantly improved glucose tolerance; also recorded: improved overall glucose tolerance
